Consider nine compounds from patent US10017533B2, “Cytotoxic titanium and vanadium complexes” (YISSUM RESEARCH DEVELOPMENT COMPANY OF THE HEBREW …, priority 2012, dated 2018).

In one data set the test system is OVCAR-3. Briefly: MTT cytotoxicity assay on OVCAR-3 cells. The data set is classed as cell-based. To be noted: administered without formulations, three days incubation. As for the experimental part:
(§1) Cytotoxicity was measured on HT-29 colon and OVCAR ovarian cells obtained from ATCC Inc. using the methylthiazolyldiphenyl-tetrazolium bromide (MTT) assay. Cells (0.6×106) in medium (contains: 1% penicillin/streptomycin antibiotics; 1% L-glutamine; 10% fetal bovine serum (FBS) and 88% medium RPMI-1640, all purchased from Biological Industries Inc.) were seeded into a 96-well plate and allowed to attach for a day. The cells were consequently treated with the reagent tested at 10 different concentrations. Solutions/dispersions of the reagents were prepared either by dissolving 8 mg of the nonformulated reagent in 200 μL of THF or by dispersing 8 mg of formulated reagent in 200 μL of medium, with further diluting to obtain the different concentrations. A total of 20 μL of the resulting system were diluted with 180 μL of medium. Consequently, 10 μL of each final system were added to each well already containing 200 μL of the above solution of cells in the medium to give final concentration of up to 200 mg/L. Control wells were treated with similar amounts of THF or medium. After a standard of 3 days incubation at 37° C. in 5% CO2 atmosphere, MTT (0.1 mg in 20 μL) was added and the cells were incubated for additional 3 hours. The MTT solution was then removed, and the cells were dissolved in 200 μL isopropanol. The absorbance at 550 nm was measured by a Bio-Tek EL-800 microplate reader spectrophotometer. Each measurement was repeated at least 3×3 times, namely, three repeats per plate, all repeated at least 3 times on different days (9 repeats altogether). IC50 values were determined by a non-linear regression of a variable slope (four parameters) model.
In general terms: Tetrazolium dyes change colour on reduction, which living cells bring about.

Another data set relates to HT-29 cancer cells. Briefly: MTT cytotoxicity assay on HT-29 colon cells. To be noted: for IC50 / maximal inhibition HT-29: three days incubation. In kind it is cell-based, human. On the procedure:
as §1

A further data set concerns OVCAR cancer cells. Briefly: MTT cytotoxicity assay on OVCAR ovarian cells. The data set is classed as cell-based. As for the experimental part:
as §1, with “After a standard of 3 days incubation at 37° C. in 5% CO2 atmosphere, MTT (0.1 mg in 20 μL) was added and the cells were incubated for additional 3 hours. The MTT solution was then removed, and the cells were dissolved in 200 μL isopropanol.” left out, “Each measurement was repeated at least 3×3 times, namely, three repeats per plate, all repeated at least 3 times on different days (9 repeats altogether).” left out

Data set [1] can be described thus: Hydrolysis measurements by 1H NMR / stability in water. In kind it is physicochemical. To be noted: 10% D2O added to [D8]THF solution. As for the experimental part: Comparative hydrolysis measurements by ^1H NMR were carried by monitoring the integration of selected signals with time following addition of 10% D2O to [D8]THF solution of the complexes. The t1/2 value for isopropoxo hydrolysis for compound 4 was ca. 100 hours, markedly higher than the value previously reported for analogous complexes of two labile ligands obtained under similar conditions (ca. 5 hours).
NMR data were recorded using AMX-400 or AMX-500 MHz Bruker spectrometer. X-ray diffraction data were obtained with a Bruker SMART APEX CCD diffractometer, running the SMART software package. After collection, the raw data frames were integrated by the SAINT software package. The structures were solved and refined using the SHELXTL software package. Hydrolysis studies by NMR were performed using a solution of the complex in [D^8]THF and adding 10% D2O. The results were verified by including p-dinitrobenzene as an internal standard.

Data set [2] is described as follows: Particle size by dynamic light scattering. In kind it is physicochemical. To be noted: nanoformulated complex, 0.2 wt % dispersion in water. On the procedure: The dry powder obtained at the end of the freeze-drying process was dispersed at 0.2% in distilled water. The sample was manually shaken for 15 seconds. Particle size distribution by volume was measured at room temperature by dynamic light scattering using a Nano-ZS Zetasizer (Malvern, UK). A 633 nm wavelength laser beam was used to illuminate the sample and the light scattering was detected at 173° angle by the Non-Invasive Back-Scatter (NIBS) technology. The advantages of the backscatter detection are: (a) Ability to measure particle size at high concentration; (b) Elimination of dust and impurity effect. Size measurements of the dispersion were performed in triplicate.

Data set [3] relates to multi-drug-resistant (MDR) cells HU-2. Briefly: Cytotoxicity toward multi-drug-resistant HU-2 cells. The data set is classed as cell-based. To be noted: nanoformulated complex.
The mark [4] stands for this setting: administered without formulations.

In general, IC50 refers to the concentration at which inhibition is half-maximal. Low readings indicate greater potency, high ones weaker potency.

For `N.N.[Cl][Pt][Cl]` [Cis-platin, reference compound], in the data set on OVCAR-3, the IC50 came to 8800 ± 2100 nM and the “maximal inhibition OVCAR-3” value worked out at 91%. Further, in the data set with HT-29 cancer cells (setting [4]), the IC50 was determined as 12200 ± 2300 nM and the “maximal inhibition HT-29” value was 90%.

Take `Clc1cc(Cl)c2c(c1)CN1CCN3Cc4cc(Cl)cc(Cl)c4[O][Ti]([O]2)([O]c2c(Cl)cc(Cl)cc2C1)[O]c1c(Cl)cc(Cl)cc1C3` [compound 3]: the IC50 with OVCAR cancer cells (nanoformulated complex, three days incubation) is 14000 ± 4000 nM; in the data set with HT-29 cancer cells (nanoformulated complex) it was 12000 ± 2000 nM; in data set [3], 800 ± 1000 nM. Besides, in the data set with OVCAR cancer cells (non-formulated, OVCAR-1 cells as printed), the “cytotoxicity when measured directly on OVCAR-1” value is “inactive”. For the same compound, in data set [1], the “hydrolysis observed by 1H NMR” value is given as “no substantial hydrolysis was observed for over a week”. For the same compound, the Mean particle size in data set [2] is listed as 5.3 ± 0.3 nm. Moreover, in the data set on HT-29 cancer cells (non-formulated), the “cytotoxicity when measured/administered directly on HT-29” value is “inactive”.

`[O]=[V]12[O]c3ccccc3CNCCN(Cc3ccccc3[O]1)Cc1ccccc1[O]2` [compound 5]: in the data set with OVCAR-3, the IC50 turned out to be 300 ± 100 nM and the “maximal inhibition OVCAR-3” value was determined as 88%. In the data set on HT-29 cancer cells (setting [4]), the IC50 was found to be 1900 ± 600 nM and the “maximal inhibition HT-29” value turned out to be 97%.

As to `Cc1ccc2c(c1)CNCCN1Cc3cc(C)ccc3[O][V](=[O])([O]2)[O]c2ccc(C)cc2C1` [compound 6], in the data set with OVCAR-3, the IC50 is 300 ± 100 nM and the “maximal inhibition OVCAR-3” value is reported as 90%. Moreover, in the data set on HT-29 cancer cells (setting [4]), the half-maximal inhibitory concentration (IC50) came to 2500 ± 700 nM and the “maximal inhibition HT-29” value was 98%.

Consider `[O]=[V]12[O]c3ccc(Cl)cc3CNCCN(Cc3cc(Cl)ccc3[O]1)Cc1cc(Cl)ccc1[O]2` [compound 7], for which, in the data set on HT-29 cancer cells (setting [4]), the midpoint of inhibition, the IC50, lay at 3200 nM and the “maximal inhibition HT-29” value was found to be 95%.

`COc1ccc2c(c1)CNCCN1Cc3cc(OC)ccc3[O][V](=[O])([O]2)[O]c2ccc(OC)cc2C1` [compound 8]: in the data set with OVCAR-3, the IC50 amounted to 600 ± 200 nM and the “maximal inhibition OVCAR-3” value is listed as 85%. Moreover, in the data set on HT-29 cancer cells (setting [4]), the IC50 stood at 700 ± 100 nM and the “maximal inhibition HT-29” value came out at 94%.

For `CC(C)(C)Oc1ccc2c(c1)CNCCN1Cc3cc(OC(C)(C)C)ccc3[O][V](=[O])([O]2)[O]c2ccc(OC(C)(C)C)cc2C1` [compound 9], in the data set with OVCAR-3, the IC50 was found to be 1300 nM and the “maximal inhibition OVCAR-3” value is given as 84%. Also, in the data set with HT-29 cancer cells (setting [4]), the IC50 is 2000 ± 400 nM and the “maximal inhibition HT-29” value was 99%.

On to `Cc1cc(C)c2c(c1)CN1Cc3cc(C)cc(C)c3[O][V](=[O])([O]2)[O]c2c(C)cc(C)cc2C1` [compound 50], for which, in the data set on OVCAR-3, the half-inhibitory concentration (IC50) stood at 2800 ± 500 nM and the “maximal inhibition OVCAR-3” value came to 87%. Further, in the data set on HT-29 cancer cells (setting [4]), half-maximal inhibition (IC50) was put at 4600 ± 800 nM and the “maximal inhibition HT-29” value was 96%.

For `[O]=[V]1[O]c2ccccc2CNCCNCc2ccccc2[O]1` [compound 63], in the data set on OVCAR-3, the IC50 turned out to be 4300 ± 1400 nM and the “maximal inhibition OVCAR-3” value is recorded as 87%. In addition, in the data set on HT-29 cancer cells (setting [4]), the IC50 was 5800 ± 300 nM and the “maximal inhibition HT-29” value is on record as 97%.
